Entries after “also recorded” stand apart in the source; their conditions may differ.
Target: T1, SERCA2 (Homo sapiens, UniProt P16615)
T1 construct: endogenous in cells; host or cells: HEK-293T cells, microsomal membrane vesicles
Experiment: NADH-coupled ATPase assay on microsomal membrane vesicles from HEK-293T cells (HEK-293 ER)
Format: biochemical
Set-up: key to SERCA2a HEK ER effect class: +++: a strong effect, comparable to or greater than that of a known compounds at a given concentration (25 µM in RyR2 R-CEPIA1er assay, 10 µM in caffeine assay and on microsomal membrane vesicles); ++: moderate effect; +: observable effect; -: no effect
Settings: for SERCA2a HEK ER effect class: 10 µM on microsomal membrane vesicles; for effect on SERCA2 ATPase activity, in words: microsomes from HEK-293 ER, 10 µM (1 µM for 14b), vs. 0.1 % DMSO
Protocol: Isolation of microsomal membrane vesicles from HEK-293T cells (HEK-293 ER) was performed according to Stewart et al.^61 HEK-293T cells were harvested with Trypsin/EDTA, washed twice with ice-cold PBS containing protease inhibitor cocktail (cOmplete™, Roche, Mannheim, Germany) and centrifuged 800 × g for 5 min. The pellet was resuspended in ice-cold lysis buffer (1 mM EDTA, 10 mM HEPES, cOmplete, pH 7.4) and incubated on ice for 20 minutes. After the cells were homogenized with a tight fitting Dounce homogenizer (10-20 strokes), an equal volume of restoration buffer (500 mM sucrose, 10 mM HEPES, cOmplete, pH 7.2) was added and the cells were homogenized again (10-20 strokes). The homogenate was centrifuged at 10000 × g for 20 min at 4° C. The supernatant was collected and centrifuged again for another 2 hours (100000 × g at 4° C). Then the pellet was carefully resuspended in resuspension buffer (250 mM sucrose, 10 mM HEPES, cOmplete, pH 7.2) on ice by pipetting the solution up and down until fully dissolved. The obtained solution was diluted to a protein concentration of 15-20 µg/µl with the resuspension buffer, the aliquots were snap frozen in liquid nitrogen and stored at - 80 °C until usage.
To determine whether new compounds could increase the SERCA2a activity, HEK-293 microsomes (40 - 150 µg of total protein) or mouse ventricular microsomes (1 - 20 µg of total protein) were diluted in 100 µl of the assay buffer used for measurement of SERCA activity (described below) and incubated at room temperature for 5 minutes prior to the experiments. The measurements of SERCA2a activity were made at 28 °C by using a NADH -coupled ATPase assay. Briefly, the assay buffer contained 60 mM MOPS, 120 mM KCI, 6 mM MgCl2, 1 mM EGTA, 5 mM NaN3, 0.5 mM phosphoenolpyruvate and 1.5 mM CaCl2, pH 7.0. Before the reaction was started by the injection of […] ATP (resulting in 2 mM final concentration in the well), 5 units/mL of both lactate dehydrogenase and pyruvate kinase, 0.5 mM NADH, and 1 µM Ca^2+ ionophore A-23187 (Sigma, C-7522) were added to the diluted sample with or without the tested compound. The 1.5 mM Ca/EGTA buffer has a free Ca^2+ concentration of about 200 µM. The NADH fluorescence decrease was recorded each 2 s for 10 min course on a multiwell plate reader TECAN Spark 20M in 96-well glass bottom plates (MatTek Corporation; Cat. No. PBK96G-1.5-5-F). Fluorescence was evoked by 380 nm excitation wavelength and collected in a bottom-read mode at 425 nm. Exposure - 30 flashes, excitation bandwidth - 10 nm, emission bandwidth - 10 nm. ATP was injected at 30 s. […] The data were analyzed with computer software GraphPad Prism version 8.3.1 (GraphPad Software, Inc.). The difference in signal decrease with and without microsomes was taken as an indicator for the additional ATPase activity performed by SERCA2a. The obtained values for maximal SERCA2a activity were normalized for total protein concentration. Maximal SERCA2a activity values are reported as percentages of control (0.1% DMSO) values. Microsomal samples that were kept on ice until usage and set to 100%.
In an NADH assay, the change in NADH coenzyme fluorescence reflects the level of the consumption of ATP, which can be taken as an indicator of SERCA2 activity [G. B. Warren, P. A. Toon, N. J. Birdsall, A. G. Lee, J. C. Metcalfe, Reconstitution of a calcium pump using defined membrane components. Proc. Natl. Acad. Sci. U.S.A. 1974, 71, 622 - 626]. ATP hydrolysis by SERCA2 is required to pump calcium ions into the SER. A higher rate of ATP hydrolysis corresponds to enhanced SERCA2 ATPase activity that leads to a greater pumping of calcium ions into the SR.
The rate of NADH oxidation, which is coupled to ATP hydrolysis, was observed by measuring changes in NADH intrinsic fluorescence over time after ATP injection into microsomal membranes enriched in SER vesicles isolated from mouse heart ventricles (mouse SER) and ER vesicles from HEK-293T cells (HEK-293 ER). […]

T1 sequence (P16615 whole entry): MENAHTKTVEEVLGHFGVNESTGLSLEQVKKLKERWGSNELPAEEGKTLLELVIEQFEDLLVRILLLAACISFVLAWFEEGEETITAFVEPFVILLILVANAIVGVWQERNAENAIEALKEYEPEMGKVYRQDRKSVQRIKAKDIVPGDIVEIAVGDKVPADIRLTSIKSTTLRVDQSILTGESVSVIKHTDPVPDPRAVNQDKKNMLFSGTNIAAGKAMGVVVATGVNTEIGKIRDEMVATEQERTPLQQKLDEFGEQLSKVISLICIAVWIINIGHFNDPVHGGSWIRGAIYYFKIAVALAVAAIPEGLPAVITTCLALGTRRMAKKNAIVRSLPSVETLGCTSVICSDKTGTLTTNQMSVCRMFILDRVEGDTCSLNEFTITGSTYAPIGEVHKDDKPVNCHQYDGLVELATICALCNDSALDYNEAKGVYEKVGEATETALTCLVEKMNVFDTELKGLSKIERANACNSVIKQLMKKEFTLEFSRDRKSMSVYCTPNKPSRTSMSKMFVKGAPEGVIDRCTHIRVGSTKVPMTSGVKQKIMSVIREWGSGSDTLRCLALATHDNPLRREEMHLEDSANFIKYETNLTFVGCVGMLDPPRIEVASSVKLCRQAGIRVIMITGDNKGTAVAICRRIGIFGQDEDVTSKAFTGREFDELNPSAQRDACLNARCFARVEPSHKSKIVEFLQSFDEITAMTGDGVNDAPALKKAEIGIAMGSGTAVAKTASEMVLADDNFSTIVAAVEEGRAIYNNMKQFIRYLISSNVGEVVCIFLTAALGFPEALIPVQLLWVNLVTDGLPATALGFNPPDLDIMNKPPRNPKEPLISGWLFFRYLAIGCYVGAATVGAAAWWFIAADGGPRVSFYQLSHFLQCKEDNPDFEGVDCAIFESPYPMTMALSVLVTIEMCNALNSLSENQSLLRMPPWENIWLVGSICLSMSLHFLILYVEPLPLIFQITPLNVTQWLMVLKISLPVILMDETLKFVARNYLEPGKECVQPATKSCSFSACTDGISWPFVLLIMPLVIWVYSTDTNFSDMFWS

Row | SMILES | SERCA2a HEK ER effect class | effect on SERCA2 ATPase activity, in words | EC50 (ATPase activity, range after the semicolon is not explained, read-out: SERCA2a HEK ER (EC50))
1 | COc1ccc2c(c1)CN(Cc1ccc(C(=O)O)cc1)CCS2 [ARM210, reference compound] | + | significant activation of SERCA2 ATPase | 
2 | COc1ccc2c(c1)CN(CCCCNCCCCC1(O)CC1)CCS2 [Compound 13a, 1-(4-((4-(7-Methoxy-2,3-dihydrobenzo[1,4-f]-thiazepin-4(5H)-yl)butyl)amino)butyl)cyclopropan-1-ol] | - | did not evoke significant increase in ATPase activity; also recorded: could not detect SERCA2 activation | 
3 | COc1ccc(OCCCNCCCCC2(O)CC2)cc1 [Compound 13b, 1-(4-((3-(4-methoxyphenoxy)propyl)amino)butyl)cyclopropan-1-ol] | - |  | 
4 | COc1ccc(SCCCNCCCCC2(O)CC2)cc1 [Compound 13c, 1-(4-((3-((4-Methoxyphenyl)thio)propyl)amino)butyl)cyclopropan-1-ol] | + | significant activation of SERCA2 ATPase | 
5 | COc1ccc2c(c1)CN(CCCCC1(O)CC1)CCS2 [Compound 13d, 1-(4-(7-methoxy-2,3-dihydrobenzo[1,4-f]thiazepin-4(5H)-yl)butyl)cyclopropan-1-ol] | + | significant activation of SERCA2 ATPase; also recorded: slight | 
6 | COc1ccc2c(c1)CN(CCCCN(CCCCC1(O)CC1)CCCCC1(O)CC1)CCS2 [Compound 14a, 1,1'-(((4-(7-Methoxy-2,3-dihydrobenzo[1,4-f]thiazepin-4(5H)-yl)butyl)azanediyl)bis(butane-4,1-diyl))bis(cyclopropan-1-ol)] | ++ |  | 16 nM
7 | COc1ccc(SCCCN(CCCCC2(O)CC2)CCCCC2(O)CC2)cc1 [Compound 14c, 1,1'-(((3-((4-Methoxyphenyl)thio)propyl)azanediyl)bis(butane-4,1-diyl))bis(cyclopropan-1-ol)] | + |  | 
